Laboratory results as given in patent publication US20160228575A1, “NARINGENIN COMPLEXES AND METHODS OF USE THEREOF” (THE GENERAL HOSPITAL CORPORATION, priority 2008, published 2016).
In brackets after ≈: the same amount, converted by molar mass. Entries after “also recorded” stand apart in the source; their conditions may differ. Read-outs that look alike come from different tables or passages of the source.

Columns and labels:
[1] = test system: ACAT1; assay: ACAT1 mRNA level by qPCR in infected Huh7.5.1 cells; assay type: cell-based, human; conditions: naringenin 24 hours
[2] = physchem; conditions: 37 °C, water, thermodynamic from solid, naringenin solubility in water
[3] = oral; cited from earlier work
[4] = test system: MTP; assay: MTP mRNA level by qPCR in infected Huh7.5.1 cells; assay type: cell-based, human; conditions: naringenin 24 hours
[5] = test system: S-180 sarcoma cell line; conditions: intraperitoneal or peroral injection once a day for 5 days, mice, cited from earlier work
[6] = biological target: T1, Microsomal triglyceride transfer protein (MTP) (Homo sapiens, UniProt P55157); assay: Microsomal triglyceride transfer protein (MTP) activity assay in Huh7.5.1 cell homogenates; assay type: cell-based; conditions: Huh-7.5.1, 24 hours stimulation of Huh7.5.1 cells
T1 construct: The MTP assay was performed by incubating 50 μg cellular protein with 10 μl of donor and acceptor solutions; endogenous in cells; host or cells: Huh7.5.1 human hepatoma cells (sonicated homogenate, 50 µg cellular protein)
T1 sequence (P55157 19-894): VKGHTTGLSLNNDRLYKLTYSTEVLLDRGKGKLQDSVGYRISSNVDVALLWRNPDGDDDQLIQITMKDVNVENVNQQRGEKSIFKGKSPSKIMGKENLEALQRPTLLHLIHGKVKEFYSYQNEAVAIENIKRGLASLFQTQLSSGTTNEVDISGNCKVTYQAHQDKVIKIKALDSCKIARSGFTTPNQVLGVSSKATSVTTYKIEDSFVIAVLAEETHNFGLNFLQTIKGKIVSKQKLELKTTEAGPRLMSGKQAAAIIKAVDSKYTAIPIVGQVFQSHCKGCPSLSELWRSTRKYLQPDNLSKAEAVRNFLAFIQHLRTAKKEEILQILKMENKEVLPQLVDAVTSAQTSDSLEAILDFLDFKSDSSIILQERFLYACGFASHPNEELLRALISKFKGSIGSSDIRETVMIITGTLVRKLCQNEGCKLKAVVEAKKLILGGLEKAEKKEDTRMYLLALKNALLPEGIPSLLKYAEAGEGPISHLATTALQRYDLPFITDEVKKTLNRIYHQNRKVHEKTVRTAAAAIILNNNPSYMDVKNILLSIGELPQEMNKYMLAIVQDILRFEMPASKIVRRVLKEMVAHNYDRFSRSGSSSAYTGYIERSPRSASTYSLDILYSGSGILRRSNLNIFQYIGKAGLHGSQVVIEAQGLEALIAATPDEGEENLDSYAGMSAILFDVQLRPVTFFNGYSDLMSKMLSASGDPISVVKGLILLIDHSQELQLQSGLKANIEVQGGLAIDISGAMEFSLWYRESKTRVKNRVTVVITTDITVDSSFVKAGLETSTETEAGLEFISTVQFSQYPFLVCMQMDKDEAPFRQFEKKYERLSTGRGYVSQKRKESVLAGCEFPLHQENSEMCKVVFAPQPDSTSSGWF
T1 sequence (P07237 18-508 partner): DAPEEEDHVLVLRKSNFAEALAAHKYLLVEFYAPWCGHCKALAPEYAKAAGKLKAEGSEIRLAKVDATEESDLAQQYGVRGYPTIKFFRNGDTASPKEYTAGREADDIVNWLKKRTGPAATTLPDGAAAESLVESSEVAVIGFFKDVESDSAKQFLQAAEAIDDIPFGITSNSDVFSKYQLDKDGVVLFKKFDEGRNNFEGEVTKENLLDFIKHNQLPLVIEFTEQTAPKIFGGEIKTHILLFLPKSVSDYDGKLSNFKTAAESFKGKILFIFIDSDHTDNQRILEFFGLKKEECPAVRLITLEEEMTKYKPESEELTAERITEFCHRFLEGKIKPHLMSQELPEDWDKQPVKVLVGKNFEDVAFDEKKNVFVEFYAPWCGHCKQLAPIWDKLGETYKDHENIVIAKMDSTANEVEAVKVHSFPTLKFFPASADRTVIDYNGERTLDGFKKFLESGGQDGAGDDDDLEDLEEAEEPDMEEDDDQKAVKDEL
Experimental: MTP activity was analyzed using an MTP assay kit as previously described (11). The assay is based on a transfer of a fluorescent signal between donor and acceptor particles due to MTP activity. Briefly, confluent Huh7.5.1 cells stimulated with naringenin or carrier control for 24 hours then washed with ice cold PBS and scraped off the dish using a cell scraper. Samples were homogenized by sonication (3×5 sec) in buffer containing protease inhibitors. The MTP assay was performed by incubating 50 μg cellular protein with 10 μl of donor and acceptor solutions in 250 μl total buffer (15 mM Tris pH 7.4; 40 mM NaCl; 1 mM EDTA). Increase in fluoresecent signal was measured over 12 hours at 37° C. at the excitation wavelength of 465 nm and emission wavelength of 538 nm.

[7] = test system: HCV (JFH-1) in Huh-7.5.1 cells; assay: Intracellular HCV RNA and core protein in infected Huh-7.5.1 cells; assay type: cell-based, Hepatitis C virus
Experimental: HCV-infected Huh-7.5.1 cells were plated on a 6-well plate at a density of 1×10^5 cells/cm^2 and cultured overnight in standard medium. Prior to the beginning of the experiment, the cells were washed 3 times with PBS and cultured with DMEM containing 5% lipoprotein-free FBS. Oleate, Insulin, Naringenin, and Brefeldin A were added at this time as described in the text. Following 24 hours of incubation, the plate was gently agitated to release mechanically bound particles, the media was collected, filtered to remove cellular debris, and stored at −80° C. for further analysis. The attached cells were washed 3 times with PBS, harvested, pelleted and stored at −80° C. for further analysis.
Virus samples collected in each experiment were filtered with a 0.45 μm filter and a volume of 100 μL for each sample was heated at 95° C. for 45 min. The reverse transcription reaction step was performed on a Mastercycler epgrdientS (Eppendorf) instrument using Omniscript and Sensiscript RT Kits (Qiagen). Real time PCR was performed on a Light Cycler LC-24 (Idaho Technology), using SuperScript™ III Platinum® CellsDirect Two-Step qRT-PCR Kits (Invitrogen) for quantitative PCR. For reverse transcription step, 2 μL of sample without RNA extraction were used. For real time PCR, 1 μL of the reverse transcription reactions was used. All reactions were performed according to the manufacturer's instructions using the primers detailed in Table 1.
Huh-7.5.1 cells were washed 3 times with PBS and fixed in 4% EM-grade paraformaldehyde for 10 minutes at room temperature. Slides were then washed with PBS and incubated in 100 mmol/L glycine for 15 minutes to saturate reactive groups. Samples were permeabilized for 15 minutes with 0.1% Triton X-100, blocked for 30 minutes with 1% bovine serum albumin and 5% donkey serum at room temperature, and stained with primary antibodies overnight at 4° C. After additional washes with PBS, samples were stained with fluorescently tagged secondary antibodies for 45 minutes at room temperature.

[8] = 400 mg/day oral, hypercholesterolemic patients; cited from earlier work
[9] = test system: HCV (JFH-1) infection of naïve Huh7.5.1 cells; assay: HCV infectivity of cell culture supernatant on naïve Huh7.5.1 cells; assay type: cell-based, Hepatitis C virus; conditions: Hepatitis C virus, Huh-7.5.1; supernatant after 24 hours stimulation; naringenin 200 μM, brefeldin A 2.5 μg/ml
Experimental: The infectivity of the secreted HCV particles was measured as previously described (8). Naïve Huh7.5.1 cells were grown to 80% confluence and exposed to cell culture supernatants diluted 10-fold in culture media. Following 1 hour incubation at 37° C., the media was replaced, and the cells were cultured for 3 additional days. Levels of HCV infection were determined by immunofluorescence staining for HCV core protein. The viral titer is expressed as focus forming units per milliliter of supernatant (ffu/ml).

## O=C1C[C@@H](c2ccc(O)cc2)Oc2cc(O)cc(O)c21 [naringenin]
[1]
  ACAT1 mRNA level: remained unchanged
[2]
  solubility: 40 µM (≈ 10.9 µg/mL)
[3]
  absorbance through the intestinal wall (intestinal absorption): about 6%
[4]
  MTP mRNA level: remained unchanged
[5]
  tumor growth of S-180 sarcoma: significantly inhibit
[5]; listed as Naringenin
  tumor growth of S-180 sarcoma: significantly inhibits
[6]
  inhibition at 200 µM: 58%
[7]; 24 hours stimulation
  intracellular HCV core protein expression: remained unchanged
  intracellular levels of HCV (positive strand) RNA: remains unchanged
[7]; long-term treatment, naringenin 200 μM, IFNα 1000 i.u.
  HCV replication (intracellular HCV RNA), long-term treatment: didn't appear to effect; also recorded: remained unchanged
[8]
  lowering of LDL levels: 17%
[9]
  inhibition at 200 µM: 79%
